Experimental data reported in patent publication US7030087B2, “Synthetic approach to designed chemical structures” (priority 1996, dated 2006).

Key:
EC (endothelial cells) = assay: EC proliferation, 3[H]thymidine incorporation assay; type: cell-based
Protocol: (§1) Since the in vivo situation of tumor associated EC involves the low expression or even absence of ICAM-1, the next set of experiments aimed to study the ability to reinduce ICAM-I expression after bFBF preincubation. […] In these experiments, HUVEC were pretreated for 3 days with bFGF, subsequently PF4 was added for 3 days and, where indicated in the last 16 hours of culture 4 ng/ml TNFα was added. Human umbilical vein derived endothelial cells (HUVEC) were harvested from normal human umbilical cords by perfusion with 0.125% trypsin/EDTA as described previously. Cells were cultured in fibronectin (FN) coated tissue culture flasks in culture medium (RPMI-1640 with 20% human serum (HS), supplemented with 2 mM glutamine and 100 U/ml penicillin and 0.1 mg/ml streptomycin). Immunofluorescence using indirect PE-conjugated reagents required three separate incubations. 1×10^5 EC were fixed for 1 hour in 1% paraformaldehyde, resuspended in 20 μl appropriately diluted Mab and incubated for 1 hour on ice. Subsequently, cells were washed two times in PBS/BSA (0.1%) and incubated for another 30 minutes with biotinylated rabbit-anti-mouse Ig (Dako, Glostrup, Denmark). After another 2 washings, cells were incubated with streptavidin-phycoerythrin conjugate (Dako). Stained cells were analyzed on a FACScan flowcytometer. Data analysis was performed using PCLysys software (Becton Dickinson, Mountain View, Calif.). Statistical significance of observed differences was determined using the Student's t-test.
EC proliferation was measured using a ^3[H]thymidine incorporation assay. EC were seeded in flatbottomed 96-well tissue culture plates (5000 cells/well) and grown for 3 days, in culture medium. In some cultures the proliferation of EC was enhanced by incubation with 10 ng/ml bFGF. During the list 6 hours of the assay, the culture was pulsed with 0.5 μCi [methyl-^3H]thymidine/well. Results are expressed as the arithmetic mean counts per minute (cpm) of triplicate cultures.

ICAM-1 = ICAM-1 expression on endothelial cells (immunofluorescence, FACScan); type: cell-based, human
Protocol: In a first series of experiments, PF4 and βpep peptides were tested for their ability to prevent bFGF (fibroblast growth factor) mediated downregulation of ICAM-1. […] Simultaneously 100 μg/ml of each PF4, βpep-14, βpep-16, or medium was added. Mean ICAM-1 fluorescence intensity values were determined.
as §1
The energy of EC to stimulation with inflammatory cytokines was the subject of a next series of experiments. For these experiments, HUVEC (human vascular endothelial cells) were pretreated with 10 ng/ml bFGF for 3 days. Subsequently, cells are subcultured for 3 days with […] in the presence of PF4. For the last 16 hours of the culture 4 ng/ml TNFα was added to induce upregulation of ICAM-1. […] The regulation of ICAM-1 at the protein level was confirmed in Northern blot analysis for detection of ICAM-1 message. In these experiments, HUVEC were cultured for 3 days with bFGF and treated for the last 4 and 24 hours with PF4 (100 μg/ml). TNFα was added 2 hours before isolation of RNA. RNA from a subconfluent EC cultures (75 cm^2 Petri-dishes) incubated with bFGF for different time-points was isolated using an RNA-zol kit (Campro Scientific, Houston, Tex.). Total RNA (10 μg) for each sample was separated in a 0.8% formaldehyde-denaturing gel, transferred to nitrocellulose (Hybond N+, Amersham International, Amersham, UK) and hybridized to a ^32P-labelled 1.9 Kb c-DNA probe, containing the functional sequence of the human ICAM-1 gene (a gift from Dr. B. Seed). Membranes were washed at a high stringency in 0.2×SSC, 0.1% SDS at 50° C. for 1 hour. Filters were exposed to X-ray films (Kodak X-omat, Eastman Kodak Company, Rochester, N.Y.) using an intensifying screen at −80° C. for not less than 12 hr. Autoradiograms were subjected to scanning using a laser densitometer (Model GS670, Bio-Rad, Hercules, Calif.) and data were analysed with the Molecular Analyst PC™ software. The intensity of the major ICAM-1 mRNA transcript was normalized with respect to actin mRNA expression used as a control.

P. aeruginosa = assay: Bactericidal activity assay; type: cell-based, Pseudomonas aeruginosa type 1
Source text: Bacteria: P. aeruginosa type 1 is a clinical isolate maintained in the laboratory. The isolate remains a smooth strain and was serotyped by the scheme of Homma. The Pseudomonas strain was maintained by monthly transfer on blood agar plates.
The peptides can be assayed for bactericidal activity against a variety of organisms such as Pseudomonas aeruginosa type 1, P. cepacia ATCC 25608, E. coli B, and Staphylococcus aureus 502A by standard methods.
Pseudomonas aeruginosa type 1 is a clinical isolate. The isolate remains a smooth strain and was serotyped by the scheme of Homma (Jpn. J. Exp. Med. 46:329, 1976). A rough strain, E. coli B and S. aureus 502A were obtained from Paul Quie, University of Minnesota (Minneapolis, Minn.). The characteristics of the S. aureus strain have been described by Shinefield et al. (Amer. J. Dis. Chil. 105:646, 1963). Pseudomonas cepacia ATCC 25608 can be purchased from the ATCC. S. aureus and E. coli were maintained on nutrient agar plates and the Pseudomonas strains were maintained on blood agar plates.
Pyrogen-free solutions were used throughout the assay and all methods that follow. Log phase bacteria were prepared from a culture in brain heart infusion broth (Hovde et al. Infect. Immun. 54:142–148, 1986) and bacteria were washed and resuspended in saline with adjustment to an optical density at 650 nm to provide a yield of about 3×10^8 CFU/ml. Bacteria were diluted 1:10 in 0.08M citrate phosphate buffer, pH 5.6 or pH 7.0, for use in the assay. S. aureus rapidly lost viability in the pH 5.6 buffer and was studied only at pH 7.0. Bactericidal activity was determined by dose response over peptide concentrations ranging from about […] to about 4.1×10^−9M. Bactericidal activity was determined by dose response, preferably determining LD50 by linear regression.

[1] = tested on: endotoxin from E. coli 055:B5; assay: Limulus amoebocyte lysate assay (E-TOXATE), endotoxin neutralization; type: biochemical; conditions: 5.0 × 10^−6 M Peptide; 0.02 U (0.2 pg) endotoxin from E. coli 055:B5; Table 4
Protocol: The peptides were tested for their ability to neutralize endotoxin. Quantitative endotoxin activities for these peptides were measured by Limulus amoebocyte lysate assay.
Limulus amoebocyte lysate assay: The ability of synthetic peptides to neutralize endotoxin was detected with the E-TOXATE kit manufactured by Sigma Chemicals (St. Louis, Mo.). […] Peptide or B/PI was incubated with LPS at room temperature for 5 min in 100 ul of a 1:2 dilution of pyrogen-free saline (pH 6.4). The reaction was started by addition of 100 ul of amoebocyte lysate and the final volume was 200 ul. Assuming a 10,000 molecular weight for LPS, the approximate molar ration of B/PI:LPS at neutralization was 3000 to 1.
The peptides were tested according to the method provided above. […] BG38L was used as a positive control in these experiments.

O=C1CCC(N2C(=O)c3ccccc3C2=O)C(=O)N1 (stereo not drawn) [thalidomide, reference compound]
EC growth in vitro (in words) (EC (endothelial cells)): do not affect EC growth in vitro | effect of other inhibitors of angiogenesis on ICAM-1 expression (in words) (ICAM-1): did not affect ICAM-1 expression

thrombospondin-1 [TSP-1]
(3H)-thymidine incorporation (EC (endothelial cells); expt 4, 10 μg/ml, 10 ng/ml bFGF, medium 31954 ± 1220): 22338 ± 860 cpm | (3H)-thymidine incorporation (EC (endothelial cells); expt 4, 10 μg/ml, no bFGF, medium 18904 ± 1501): 8865 ± 639 cpm | (3H)-thymidine incorporation (EC (endothelial cells); expt 4, 25 μg/ml, 10 ng/ml bFGF, medium 31954 ± 1220): 10267 ± 797 cpm | (3H)-thymidine incorporation (EC (endothelial cells); expt 4, 25 μg/ml, no bFGF, medium 18904 ± 1501): 5565 ± 349 cpm | effect of other inhibitors of angiogenesis on ICAM-1 expression (in words) (ICAM-1): same results

interferon-γ inducible protein-10 [IP-10]
(3H)-thymidine incorporation (EC (endothelial cells); expt 3, 100 μg/ml, 10 ng/ml bFGF, medium 3432 ± 232): 725 ± 95 cpm | effect of other inhibitors of angiogenesis on ICAM-1 expression (in words) (ICAM-1): same results

SIQDLNVSMKLFRKQAKWKLIVKLNDGRELSLD [βpep-14]
EC proliferation in vitro (in words) (EC (endothelial cells)): angiostatic | (3H)-thymidine incorporation (EC (endothelial cells); expt 2 (first, r11), 1 μg/ml, 10 ng/ml bFGF, medium 29079 ± 2506): 28695 ± 1062 cpm | (3H)-thymidine incorporation (EC (endothelial cells); expt 2 (first, r11), 1 μg/ml, no bFGF, medium 14296 ± 2490): 14184 ± 1775 cpm | (3H)-thymidine incorporation (EC (endothelial cells); expt 2 (first, r11), 10 μg/ml, 10 ng/ml bFGF, medium 29079 ± 2506): 29530 ± 1608 cpm | (3H)-thymidine incorporation (EC (endothelial cells); expt 2 (first, r11), 10 μg/ml, no bFGF, medium 14296 ± 2490): 9886 ± 2114 cpm | (3H)-thymidine incorporation (EC (endothelial cells); expt 2 (first, r11), 100 μg/ml, 10 ng/ml bFGF, medium 29079 ± 2506): 6585 ± 132 cpm | (3H)-thymidine incorporation (EC (endothelial cells); expt 2 (first, r11), 100 μg/ml, no bFGF, medium 14296 ± 2490): 3774 ± 299 cpm | (3H)-thymidine incorporation (EC (endothelial cells); expt 2 (second, r19), 1 μg/ml, 10 ng/ml bFGF, medium 52808 ± 4092): 48443 ± 2700 cpm | (3H)-thymidine incorporation (EC (endothelial cells); expt 2 (second, r19), 1 μg/ml, no bFGF, medium 6780 ± 713): 7214 ± 1668 cpm | (3H)-thymidine incorporation (EC (endothelial cells); expt 2 (second, r19), 10 μg/ml, 10 ng/ml bFGF, medium 52808 ± 4092): 52126 ± 1258 cpm | (3H)-thymidine incorporation (EC (endothelial cells); expt 2 (second, r19), 10 μg/ml, no bFGF, medium 6780 ± 713): 6074 ± 899 cpm | (3H)-thymidine incorporation (EC (endothelial cells); expt 2 (second, r19), 100 μg/ml, 10 ng/ml bFGF, medium 52808 ± 4092): 7663 ± 715 cpm | (3H)-thymidine incorporation (EC (endothelial cells); expt 2 (second, r19), 100 μg/ml, no bFGF, medium 6780 ± 713): 1062 ± 325 cpm | bFGF mediated downregulation of ICAM-1 (in words) (ICAM-1; 10 ng/ml bFGF for 3 days, 100 μg/ml added simultaneously): complete block of bFGF mediated downregulation | Bactericidal Activity, % killing (P. aeruginosa; 1.2 × 10^−7 M Peptide, 5 × 105 P. aeruginosa): 0% | Bactericidal Activity, % killing at the effective dose (P. aeruginosa; at the Ed for the same peptide): 39.9% | Bactericidal Activity, Ed, Effective M dose (P. aeruginosa; dose at which the % in brackets was found): 960 nM | Endotoxin Neutralization, % neutralization [1]: 38.8 n = 1%
